Reference: publication PMC3189933, “Acylpeptide Hydrolase Inhibition as Targeted Strategy to Induce Proteasomal Down-Regulation” (PLoS ONE, 2011)

Columns and labels:
[1] = test system: BHK cells; experiment: Cytotoxicity in BHK cells; assay type: cell-based, Baby Hamster; settings: 100 µM, 24 h or 48 h; data not shown
Description: (§1) The cells were plated in 12-well plates, to a confluence of 60% for the 24-h incubations, and 40% for 48-h exposure to PIs. These treatments were initiated 24-h after the plating of the cells. Phase-contrast images of the cells were taken just before the lysis of the cells for protein analysis, using a Lica DM6000 inverted microscope.

[2] = test system: p21Waf1 in Caco-2 cells; experiment: Immunoblot of p21Waf1 in Caco-2 cells; assay type: cell-based, human; settings: 200 µM alone, 48 h
Text: (§2) The following antibodies were used: anti-APEH antibody (sc-102311; Santa Cruz Biotechnology); anti-NF-κB/p65 antibody (Thermo Scientific); anti-p21Waf1 antibody (Exbio); pan Ab-5 anti-actin antibody (clone ACTN05, Thermo Scientific); and monoclonal antibodies against polyubiquitinylated proteins conjugated with horseradish peroxidase (FK2H, Enzo, Life Science). The ΔF508CFTR-3HA protein was detected with an anti HA monoclonal antibody (Covance).

[3] = test system: APEH in BHK cells; experiment: APEH activity in BHK cells; assay type: cell-based, Baby Hamster; settings: 50 and 100 µM, 48 h
Description: (§3) APEH activity was expressed in IU.
as §1

[4] = test system: proteasome CT-like activity in BHK cells; experiment: CT-like proteasome activity in BHK cells; assay type: cell-based, Baby Hamster; settings: 50 and 100 µM, 48 h
Description: as §1

[5] = test system: ΔF508 CFTR-3HA (CFTR-M) in BHK cells; experiment: CFTR-M accumulation in BHK cells (immunoblot); assay type: cell-based, Baby Hamster; settings: 100 µM, 24 h, densitometry vs untreated
Description: as §1

[6] = test system: caspase-3 in Caco-2 cells; experiment: Caspase-3 activity in Caco-2 cells; assay type: cell-based, human; settings: 48 h
Description: The pro-apoptotic ability of the peptides and the CLA isomers were assayed by measuring the caspase-3 and caspase-8 activities using fluorometric kits, according to the manufacturer instructions. These assays were based on hydrolysis of the substrate acetyl-Asp-Glu-Val-Asp-7-amido-4-methylcoumarin (Ac-DEVD-AMC) or acetyl-Ile-Glu-Thr-Asp-7-amino-4-methyl coumarin (Ac-IETD-AMC) by caspase-3 and caspase-8, respectively. The release of the 7-AMC moiety in protein extracts prepared from the differently treated cells was evaluated by fluorimetry (excitation 360 nm, emission 460 nm). Their amounts were calculated by means of a standard curve prepared with pure AMC, and following normalisation for protein content, the activities were expressed as nmoles AMC/mg protein/min.

[7] = molecular target: T1, partially purified proteasome from Caco-2 cells (Homo sapiens, UniProt P28074); experiment: CT-like activity of partially purified proteasome from Caco-2 cells (cell-free); assay type: biochemical; settings: proteasome 0.12 mg/mL, pre-incubated 30 min at 37°C
T1 construct: a partially purified proteasome fraction from differentiated Caco-2 cells; endogenous in cells; host or cells: Caco-2
T1 sequence (P28074 60-263): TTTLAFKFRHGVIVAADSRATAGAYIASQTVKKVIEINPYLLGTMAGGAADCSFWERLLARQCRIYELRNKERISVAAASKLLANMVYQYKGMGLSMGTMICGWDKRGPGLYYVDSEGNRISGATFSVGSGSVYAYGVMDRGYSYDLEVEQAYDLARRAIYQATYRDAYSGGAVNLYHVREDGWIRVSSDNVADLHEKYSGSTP
Description: APEH from Sulfolobus solfataricus was purified as previously reported. Partial purification of human APEH and proteasome was carried out from protein extracts of Caco-2 cell. Briefly, protein extracts (500 µg) were fractionated by gel filtration chromatography on a Superdex 200 PC 3.2/30 column connected to a SMART System (Pharmacia) equilibrated in buffer 50 mM Tris-HCl, pH 7.5, 100 mM NaCl, at 0.1 mL/min. The eluted fractions were assayed using the specific substrates for APEH and the proteasome. The active fractions were collected and used for further analysis.
(§4) Protease inhibitor activities of the SsCEI peptides and the CLA isomers were carried out using a fixed amount of APEH or partially purified proteasome (3–5 nM and 0.12 mg/mL, respectively), and increasing the SsCEI and CLA isomer concentrations. Mixtures were pre-incubated for 30 min at 37°C before the addition of the substrate, and the enzymatic activities were followed as described above. Protease inhibitor activities of the SsCEI peptides and the CLA isomers were determined towards APEHSs. The protease and increasing concentrations of the inhibitors were mixed and preincubated for 30 min at 80°C before the addition of the specific substrate. The residual enzymatic activity was determined using the assay procedure described above.

[8] = molecular target: T2, porcine APEH (Sus scrofa, UniProt P19205); experiment: Inhibition of porcine liver APEH, Ac-Ala-pNA substrate; assay type: biochemical
T2 construct: mammalian APEHs purified from both porcine liver and human colon carcinoma intestinal cells (Caco-2); purchased Takara; host or cells: porcine liver
T2 sequence (P19205 1-732): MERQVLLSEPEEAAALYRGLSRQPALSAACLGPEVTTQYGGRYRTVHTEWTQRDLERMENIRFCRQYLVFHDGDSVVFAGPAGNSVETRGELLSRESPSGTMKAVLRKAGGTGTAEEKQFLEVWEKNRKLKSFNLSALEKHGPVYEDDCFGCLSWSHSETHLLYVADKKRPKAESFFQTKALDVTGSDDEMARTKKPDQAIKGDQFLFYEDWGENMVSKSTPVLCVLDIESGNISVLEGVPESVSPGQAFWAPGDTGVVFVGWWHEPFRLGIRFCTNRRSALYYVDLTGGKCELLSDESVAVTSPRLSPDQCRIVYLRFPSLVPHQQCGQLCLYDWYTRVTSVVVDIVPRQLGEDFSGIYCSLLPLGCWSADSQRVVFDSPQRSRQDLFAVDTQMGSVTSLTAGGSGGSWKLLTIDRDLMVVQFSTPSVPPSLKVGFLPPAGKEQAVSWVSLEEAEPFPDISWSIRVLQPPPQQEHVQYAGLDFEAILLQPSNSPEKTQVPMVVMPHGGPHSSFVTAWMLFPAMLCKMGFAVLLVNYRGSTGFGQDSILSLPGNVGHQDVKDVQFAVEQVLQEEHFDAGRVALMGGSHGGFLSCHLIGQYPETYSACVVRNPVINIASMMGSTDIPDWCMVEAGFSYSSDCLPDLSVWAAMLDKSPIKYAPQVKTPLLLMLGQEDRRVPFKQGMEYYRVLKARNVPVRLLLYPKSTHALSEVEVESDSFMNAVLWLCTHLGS
Description: as §3, §4
All data were obtained from triplicate analyses of three different preparations. Data were presented as means ±S.D. Statistical analysis and IC50 values were calculated with the SigmaPlot 10.0 software through a non-linear curve-fitting method and using a simple binding isotherm equation. Groups were compared by Student's t test, and P<0.05 was considered as significant.

[9] = test system: polyubiquitinylated proteins in Caco-2 cells; experiment: Protein ubiquitinylation in Caco-2 cells (immunoblot); assay type: cell-based, human; settings: 48 h, 200 µM SsCEI 4 or t10c12-CLA, mixture, 100 µM ebelactone, 10 µM MG132, species 66 kDa to 160 kDa
Text: as §2

CCCCC/C=C\C=C\CCCCCCCCC(=O)O [t10c12-CLA, trans10-cis12 CLA]
cytotoxic effects in BHK cells [1]: without any cytotoxic effects
increase of p21Waf1 [2]: two
APEH activity in BHK cells [3]: dose-dependent inhibition
proteasome CT-like activity in BHK cells [4]: dose-dependent inhibition
increase of CFTR-M levels [5]: five
caspase-3 activity increase ([6]; 200 µM, vs untreated, P<0.01): about two
caspase-3 activity, dose response ([6]; increasing concentrations up to 200 µM): improved at increasing doses
effect on partially purified proteasome CT-like activity [7]: not affected
IC50 ([8]; Ac-Ala-pNA 1 mM, 50 mM Tris-HCl pH 7.5, pre-incubated 30 min at 37°C, mean ± SD, read-out: IC50 towards porcine APEH): 105 ± 23 µM
inhibition mechanism towards porcine APEH ([8]; Lineweaver-Burk plot): non–competitive
polyubiquitin conjugates in cell extract [9]: presence of high-molecular-mass immunoreactive species
